According to patent US20030022826A1, “Use of synthetic peptides to induce tolerance to pathogenic T and B cell epitopes of autoantigens or infectious agents” (priority 1987, published 2003):

How the values were obtained:
[1] = DSP cross-linking and SDS-PAGE analysis of peptide complexes; format: physicochemical; conditions: DSP cross-linking in the presence of Triton-X 100 1%
Procedure: Lanes D,E,F, and G show the effect on peptide MW when the peptide is cross-linked with 6.25 μg (D), 12.5 μg (E), 25 μg (F) and 50 μg (G) of DSP prior to SDS-PAGE. […] At present, the nature of the two bands in this peptide under reducing conditions is unknown; these two bands can be purified by cutting the bands out of preparative gels and can be analyzed by mass spectroscopy and sequenced. Lanes A and B show the results of crosslinking F-T1-SP10IIIB(A) peptide in the presence to Triton-X 100 1% and run under reducing (A) and non-reducing conditions (B).

PHA = assay: PBMC proliferative responses to PHA in immunized chimpanzees; format: in vivo, chimpanzee; conditions: animals 1045 and 1070; throughout the immunization period
Description: Acpm=experimental cpm—control cpm.

[2] = tested on: circulating chimpanzee T, B or NK cell populations; assay: Absolute numbers of lymphocytes and lymphocyte subsets by flow cytometry during immunization; format: in vivo; conditions: for B cells, % Change / T cells, % Change / Total Lymphocytes, % Change / NK cells, % Change: before vs during immunization; for average drop of T cell levels: during the immunization period; for B cells, During / NK cells, During / T cells, During / Total Lymphocytes, During: mean, months 2-14 of immunization, n = 11
Description: Flow Cytometry: Chimpanzee PB mononuclear cells were studied by standard flow cytometry methods using a flow cytometer (751; Coulter Electronics, Inc., Hialeah, Fla.). PB lymphocytes were identified by the following markers; total T cells, CD3; T cell subunits, CD4 and CD8; B cells, CD19; and NK cells, CD56 and CD16.

SMILES: CC[C@H](C)[C@H](NC(=O)[C@@H](NC(=O)[C@@H](NC(=O)[C@H](Cc1ccccc1)NC(=O)[C@H](C)NC(=O)[C@H](CCCNC(=N)N)NC(=O)CNC(=O)[C@@H]1CCCN1C(=O)CNC(=O)[C@H](CCCNC(=N)N)NC(=O)[C@H](CCC(N)=O)NC(=O)[C@@H](NC(=O)[C@H](CCCNC(=N)N)NC(=O)[C@@H](NC(=O)[C@H](CO)NC(=O)[C@H](CCCCN)NC(=O)[C@H](CCCNC(=N)N)NC(=O)[C@@H](NC(=O)[C@H](CC(N)=O)NC(=O)[C@H](CC(N)=O)NC(=O)[C@H](CC(N)=O)NC(=O)[C@@H]1CCCN1C(=O)[C@H](CCCNC(=N)N)NC(=O)[C@@H](NC(=O)[C@H](CS)NC(=O)[C@H](C)NC(=O)[C@H](Cc1ccc(O)cc1)NC(=O)[C@H](CCSC)NC(=O)[C@H](C)NC(=O)[C@H](CCCCN)NC(=O)CNC(=O)[C@@H](NC(=O)[C@H](CCC(=O)O)NC(=O)[C@H](CCC(N)=O)NC(=O)[C@H](Cc1c[nH]c2ccccc12)NC(=O)[C@H](CCSC)NC(=O)[C@H](CC(N)=O)NC(=O)[C@@H](NC(=O)[C@@H](NC(=O)[C@H](CCC(N)=O)NC(=O)[C@H](CCCCN)NC(=O)[C@H](CC(C)C)NC(=O)[C@H](Cc1ccccc1)NC(=O)CNC(=O)[C@H](CC(C)C)NC(=O)[C@H](Cc1ccccc1)NC(=O)[C@H](CC(C)C)NC(=O)[C@H](C)NC(=O)CNC(=O)[C@@H](NC(=O)CNC(=O)[C@@H](NC(=O)[C@H](C)N)C(C)C)[C@@H](C)CC)[C@@H](C)CC)[C@@H](C)CC)C(C)C)[C@@H](C)O)[C@@H](C)O)[C@@H](C)CC)[C@@H](C)CC)C(C)C)[C@@H](C)O)C(=O)O [F-T1-SP10IIIB(A)]
- stability of high MW complexes to detergent [1]: resistant to disruption by this detergent
- PBMC PHA responses (PHA): normal
- lymphocyte count ([2]; animal 1045, week 12): 650 /mm^3
- B cells, % Change ([2]; chimpanzee 1045, § p > .005): −40%§
- T cells, % Change ([2]; chimpanzee 1045, † p > .001): −59%†
- Total Lymphocytes, % Change ([2]; chimpanzee 1045, † p > .001): −55%†
- NK cells, % Change ([2]; chimpanzee 1045, ‡ p > .02): −45%‡
- average drop of T cell levels ([2]; chimpanzee 1045, p>0.001 as printed): 59%
- B cells, During ([2]; chimpanzee 1045): 175 Cells/mm^3
- NK cells, During ([2]; chimpanzee 1045): 61 Cells/mm^3
- T cells, During ([2]; chimpanzee 1045): 1012 Cells/mm^3
- Total Lymphocytes, During ([2]; chimpanzee 1045): 1426 Cells/mm^3
- B cells, % Change ([2]; chimpanzee 1070): −23%
- NK cells, % Change ([2]; chimpanzee 1070): −36%
- Total Lymphocytes, % Change ([2]; chimpanzee 1070): −30%
- T cells, % Change ([2]; chimpanzee 1070, ‡ p > .02): −44%‡
- average drop of T cell levels ([2]; chimpanzee 1070, p>0.02 as printed): 44%
- B cells, During ([2]; chimpanzee 1070): 232 Cells/mm^3
- NK cells, During ([2]; chimpanzee 1070): 306 Cells/mm^3
- T cells, During ([2]; chimpanzee 1070): 1887 Cells/mm^3
- Total Lymphocytes, During ([2]; chimpanzee 1070): 2768 Cells/mm^3
- effect on circulating lymphocyte levels ([2]; chimpanzees, F-derivatized peptide in 1045 and 1070, Th-B in 884 and 1028): induced decreases in absolute levels of circulating T cells
